Measured values reported in patent US11136297B2, “Compositions and methods for treating cancer” (THE REGENTS OF THE UNIVERSITY OF CALIFORNIA, priority 2016, dated 2021).

What was measured:
[1] = biological target: T1, H-Ras(M72C) bound to either GDP or GppNHp (Homo sapiens, UniProt P01112, M72C); test: Electrophile labeling experiments (percent modification by whole protein LC/MS); format: binding
T1 construct: Labeling studies were conducted using the 1-166 H-Ras(M72C) construct containing all endogenous cysteines; His6; made in house; host or cells: Escherichia coli BL21(DE3)
Protocol: Electrophile Labeling Experiments.
Each reaction was analyzed in a 96 well plate format for analysis by LC/MS. Total reaction volumes were 25 μL for single time point labeling experiments and 200 uL for full 24-hour time courses. 25 μL reactions were made in the wells of a V-bottom 96 well plate and 200 uL reactions were made in 1.25 mL eppendorf tubes. All labeling reactions were conducted in Gel Filtration Buffer (20 mM HEPES (pH 7.5), 150 mM NaCl) with no added reductant at room temperature. […] Electrophile stocks were made in DMSO at 10 mM, aliquoted, and frozen. Labeling reactions were started by the addition of the desired volume of 10 mM electrophile stock and mixed thoroughly by pipette. General screening of new electrophiles was done at 100 μM electrophile in triplicate and sampled as a single time point after 24 hours of incubation. For Compound 3, labeling time courses were conducted at 20 μM compound with sampling done every 2 hours for the first 10 hours of incubation and continued after overnight incubation until the protein was fully modified. Reactions were allowed to sit at room temperature in the dark (either covered in aluminum foil or in a bench drawer) until the desired time point was reached. For 24-hour single point labeling experiments, the reaction was directly sampled from the 96 well plate and analyzed by LC/MS. For experiments with multiple time points, 22.5 μL aliquots of the 200 μL master reaction were sampled and quenched by the addition of 2.5 μL of 2% formic acid (also made in Gel Filtration Buffer). This 25 μL quenched sample was then analyzed by LC/MS and the remaining master reaction was allowed to continue reacting after gentle mixing by pipette. The percent modification was analyzed by electrospray mass spectrometry using a Waters Acquity UPLC/ESI-TQD with a 2.1×50 mm Acquity UPLC BEH300 C4 column.

[2] = biological target: T2, p110d/p85a (PI3K-d) activation by H-Ras-GTP (Homo sapiens, UniProt P01112, C118S/G12V/M72C); test: PI3K lipid kinase assay with membrane-coupled H-Ras (Transcreener ADP2 FI); format: biochemical; conditions: with pY phosphopeptide; H-Ras(G12V) alone gave 20-fold
T2 construct: Plasmids expressing 1-181 H-Ras(G12V/C118S) and H-Ras(G12V/M72C/C118S); His tag (purified on HisTrap, TEV-cleavable) (cleaved yes); made in house; host or cells: Escherichia coli BL21 DE3 (H-Ras)
Protocol: Purification and Modification of H-Ras Constructs for Lipid Kinase Assays. Plasmids expressing 1-181 H-Ras(G12V/C118S) and H-Ras(G12V/M72C/C118S) were transformed into BL21 DE3 and the culture was induced at OD 0.6-0.9 with […] IPTG. The cultures were then allowed to grow for 4 h at 37° C. after which the cells were pelleted and stored at −80° C. Frozen pellets were re-suspended in lysis buffer and lysed by sonication (10s ON; 10s OFF; Power-6.0). Triton-X was added to a final concentration of 0.1% and lysate was centrifuged at 20,000 g for 45 minutes (Beckman Coulter Avanti J-251, JA 25.50 rotor). The supernatant was loaded on a 5 mL HisTrapTm FF column (GE Healthcare) equilibrated with buffer containing 10 mM imidazole pH 8.0 (NiNTA A). Following washes with 20 mL NiNTA A and 20 mL of 6% buffer containing 200 mM imidazole pH 8.0 (NiNTA B), the protein was eluted in 100% NiNTA B. The elution was buffer exchanged with NiNTA A buffer in a 10,000 MWCO Amicon concentrator (Millipore). The sample was concentrated down to <2 mL and TEV protease was added to −0.3 mg/mL. The cleavage was allowed to proceed overnight at 4° C. To de-enrich the TEV protease, the protein solution was loaded onto a HisTrapTm FF column and eluted with 10 mL of NiNTA A buffer. The elution was concentrated to −2 mL. […]

[3] = biological target: T3, 1-181 H-Ras(G12V/M72C/C118S) (Homo sapiens, UniProt P01112, C118S/G12V/M72C); test: Coupling of Compound 3 to H-Ras M72C construct for lipid kinase assays; format: binding; conditions: M72C construct with 200-250 Compound 3, 72 hours, 4° C.
T3 construct: Plasmids expressing 1-181 H-Ras(G12V/C118S) and H-Ras(G12V/M72C/C118S); His tag (purified on HisTrap, TEV-cleavable) (cleaved yes); made in house; host or cells: Escherichia coli BL21 DE3
Protocol: Coupling to inhibitor was done in a reaction containing […], 100 mM TCEP, 1 mM MgCl2 and […] Compound 3. DMSO was adjusted to a final concentration of 5%. After 24 hours, more inhibitor was added to a total final concentration of […]. The coupling was allowed to proceed for −72 hours at 4° C. Coupling efficiency was −70%. The coupled protein was exchanged with gel filtration buffer and loaded with GTPgS in the same manner as the H-Ras(G12V) construct. The protein was then run on a Superdex™ 75 10/300 GL size-exclusion column (GE Healthcare) equilibrated in Ras gel filtration buffer to remove excess nucleotide.

Percent modification (labeling of Cys 72) ([1]; 4 μM H-Ras(M72C) GDP or GppNHp, 100 μM electrophile, 24 hours): improved covalent binding
labeling of the GDP state ([1]; H-Ras(M72C) GDP, 20 μM electrophile (1:5 Ras to Compound 3), time course): rapidly and fully labels the GDP state
modification of the GppNHp state ([1]; H-Ras(M72C) GppNHp, 20 μM electrophile (1:5 Ras to Compound 3)): 88.7%
activation of PI3K-d activity by H-Ras(G12V/M72C) bound to compound [2]: ~3 fold
Coupling efficiency [3]: 70%
Structure (SMILES): C=CC(=O)Nc1cc(Cl)cc(NC(=O)c2cnn(-c3ccc(OC)cc3)c2C(F)(F)F)c1 [Compound 3, N-(3-acrylamido-5-chlorophenyl)-1-(4-methoxyphenyl)-5-(trifluoromethyl)-1H-pyrazole-4-carboxamide]
